Here are results for 1 substance from paper PMC11106739, “Discovery and Derivatization of Tridecaptin Antibiotics with Altered Host Specificity and Enhanced Bioactivity” (ACS Chemical Biology, 2024).

The experiment has as its system E. coli ATCC 25922. Nature of the experiment: LIVE/DEAD staining (SYTO 9 / propidium iodide). The following applies: E. coli ATCC 25922, tridecaptins at 1 × MIC, polymyxin 4 μg/mL (2 × MIC), 15 min, microscopy. Format: cell-based, Escherichia coli. The method, then: This assay was performed according to a previously described procedure.[55],[56] Briefly, overnight cultures of E. coli ATCC 25922 and S. aureus ATCC 29213 were diluted to an OD600 of 0.2 in MHB and mixed with 1 × MIC of Oct-TriA1, Oct-TriA5, and Oct-TriD. Nisin and polymyxin B were used as positive controls at a concentration of 2-fold MIC. At the same time, green fluorescent nucleic acid stain SYTO 9 (excitation, 450–490 nm; emission, 500–550 nm) and red fluorescent nucleic acid stain propidium iodide (excitation, 574–599 nm; emission, 612–682 nm) (LIVE/DEAD Baclight Bacterial Viability Kit, Invitrogen) were added to the above cell suspensions. After mixing and incubating for 15 min in the dark at RT, cells were briefly sedimented via centrifugation and resuspended in fresh MHB. Then, the cell suspensions were loaded on 1.5% agarose pads and analyzed by a Zeiss Imager M2 microscope. Confocal images were obtained at 4 random locations for each sample and visualized using FIJI version 1.51H.[57]

polymyxin B: the “LIVE/DEAD staining, membrane integrity of E. coli cells” value is “death of half of the E. coli cells”.
